According to ChEMBL document CHEMBL1158359, “A novel and efficient one step synthesis of 2-amino-5-cyano-6-hydroxy-4-aryl pyrimidines and their anti-bacterial activity” (2009):

Key:
Type in all cases: functional
Settings in all cases: read-out: IZ
Escherichia coli [1] = experiment: Antibacterial activity against Escherichia coli at 750 ppm after 1 hr by agar well diffusion method
Escherichia coli [2] = experiment: Antibacterial activity against Escherichia coli at 250 ppm after 1 hr by agar well diffusion method
Escherichia coli [3] = experiment: Antibacterial activity against Escherichia coli at 500 ppm after 1 hr by agar well diffusion method
Staphylococcus aureus [4] = experiment: Antibacterial activity against Staphylococcus aureus at 750 ppm after 1 hr by agar well diffusion method
Staphylococcus aureus [5] = experiment: Antibacterial activity against Staphylococcus aureus at 500 ppm after 1 hr by agar well diffusion method
Staphylococcus aureus [6] = experiment: Antibacterial activity against Staphylococcus aureus at 250 ppm after 1 hr by agar well diffusion method
Staphylococcus aureus [7] = experiment: Antibacterial activity against Staphylococcus aureus at 50 ppm after 1 hr by agar well diffusion method
Staphylococcus aureus [8] = experiment: Antibacterial activity against Staphylococcus aureus at 100 ppm after 1 hr by agar well diffusion method

In the case of `N#Cc1c(O)nc(N)nc1-c1cccc(Cl)c1`, the zone of inhibition at 750 ppm (Escherichia coli [1]) is reported as 11 mm, the zone of inhibition at 250 ppm (Escherichia coli [2]) is reported as 4 mm and the zone of inhibition at 500 ppm (Escherichia coli [3]) is reported as 7 mm. It also gave a zone of inhibition at 750 ppm (Staphylococcus aureus [4]) of 5 mm.
Work on `COc1cc(-c2nc(N)nc(O)c2C#N)cc(OC)c1OC` yielded a zone of inhibition at 500 ppm (Staphylococcus aureus [5]) of 10 mm and a zone of inhibition at 750 ppm (Staphylococcus aureus [4]) of 13 mm.
Work on `N#Cc1c(O)nc(N)nc1-c1ccccc1[N+](=O)[O-]` yielded a zone of inhibition at 750 ppm (Escherichia coli [1]) of 9 mm, a zone of inhibition at 250 ppm (Escherichia coli [2]) of 3 mm and a zone of inhibition at 500 ppm (Staphylococcus aureus [5]) of 12 mm. For the same molecule, the zone of inhibition at 500 ppm (Escherichia coli [3]) was 5 mm and the zone of inhibition at 750 ppm (Staphylococcus aureus [4]) was 15 mm.
Molecule `N#Cc1c(O)nc(N)nc1-c1cccc([N+](=O)[O-])c1` has a zone of inhibition at 500 ppm (Staphylococcus aureus [5]) of 8 mm, a zone of inhibition at 250 ppm (Staphylococcus aureus [6]) of 4 mm and a zone of inhibition at 750 ppm (Staphylococcus aureus [4]) of 14 mm.
In the case of `N#Cc1c(O)nc(N)nc1-c1ccccc1Cl`, the zone of inhibition at 750 ppm (Escherichia coli [1]) is reported as 10 mm, the zone of inhibition at 500 ppm (Staphylococcus aureus [5]) is reported as 9 mm and the zone of inhibition at 500 ppm (Escherichia coli [3]) is reported as 8 mm. The zone of inhibition at 250 ppm (Staphylococcus aureus [6]) was 5 mm and the zone of inhibition at 750 ppm (Staphylococcus aureus [4]) was 14 mm.
With `N#Cc1c(O)nc(N)nc1-c1ccc(O)cc1` the zone of inhibition at 750 ppm (Escherichia coli [1]) was 10 mm, the zone of inhibition at 500 ppm (Staphylococcus aureus [5]) was 8 mm and the zone of inhibition at 500 ppm (Escherichia coli [3]) was 6 mm. For the same molecule, the zone of inhibition at 250 ppm (Staphylococcus aureus [6]) was 5 mm and the zone of inhibition at 750 ppm (Staphylococcus aureus [4]) was 11 mm.
In the case of `CN(C)c1ccc(-c2nc(N)nc(O)c2C#N)cc1`, the zone of inhibition at 750 ppm (Escherichia coli [1]) is reported as 11 mm, the zone of inhibition at 250 ppm (Escherichia coli [2]) is reported as 4 mm and the zone of inhibition at 500 ppm (Staphylococcus aureus [5]) is reported as 9 mm. For the same molecule, the zone of inhibition at 500 ppm (Escherichia coli [3]) was 7 mm, the zone of inhibition at 250 ppm (Staphylococcus aureus [6]) was 7 mm and the zone of inhibition at 750 ppm (Staphylococcus aureus [4]) was 11 mm.
For `N#Cc1c(O)nc(N)nc1C/C=C/c1ccccc1`, the zone of inhibition at 750 ppm (Escherichia coli [1]) was 12 mm, the zone of inhibition at 250 ppm (Escherichia coli [2]) was 7 mm and the zone of inhibition at 500 ppm (Staphylococcus aureus [5]) was 5 mm. The zone of inhibition at 500 ppm (Escherichia coli [3]) was 9 mm and the zone of inhibition at 750 ppm (Staphylococcus aureus [4]) was 9 mm.
Work on `COc1ccc(C2NC(=N)NC(=O)C2C#N)cc1` (stereo unspecified) yielded a zone of inhibition at 750 ppm (Staphylococcus aureus [4]) of 5 mm.
Molecule `N#Cc1c(O)nc(N)nc1-c1ccccc1` has a zone of inhibition at 50 ppm (Staphylococcus aureus [7]) of 10 mm, a zone of inhibition at 500 ppm (Staphylococcus aureus [5]) of 15 mm and a zone of inhibition at 100 ppm (Staphylococcus aureus [8]) of 12 mm. The zone of inhibition at 250 ppm (Staphylococcus aureus [6]) was 15 mm and the zone of inhibition at 750 ppm (Staphylococcus aureus [4]) was 18 mm.
